Source: patent US12667724B2, “Combination therapy for the treatment of depression” (Flow Neuroscience, Inc., priority 2022, dated 2026)
Entries after “also recorded” stand apart in the source; their conditions may differ.

Tests used:
[1] = Weekly MADRS-s self-assessment of MDD subjects on a prescribed antidepressant combined with home tDCS sessions (Example 2); assay type: in vivo, human; conditions: for effectiveness in reducing symptoms of depression (change in MADRS-s) compared to fluoxetine: combined with tDCS, Week 6
From the text: In this example, a subject completed a MADRS-s questionnaire at baseline (defined as a time preceding initiation of neurostimulation) to determine a starting measurement to be used in an assessment of treatment efficacy. Ideally, baseline measures were made close to the period of time in which the first neurostimulation session began. The subject completed the same MADRS-s questionnaire weekly during a period of ongoing treatment comprising administering of a prescribed pharmacologic antidepressant agent and delivery to the subject of plurality tDCS sessions. The number of and date completed of each tDCS session was recording in order to analyze subjects according to how often they successfully completed tDCS sessions as part of their treatment regimens. Subjects were parcellated into groups of 1) depression symptoms absent, 2) mild depression, 3) moderate depression, or 4) severe depression to further enable analysis of changes in MADRS-s score according to severity of depression and adherence to the recommended tDCS session schedule. […]
Subjects were provided with a tDCS neurostimulation device, instructions of use, and an program capable of being run on a handheld electronic device which provided instructions, recorded responses to various questionnaires completed by the subject, and recorded information regarding the tDCS stimulation sessions completed by the user. Amongst the tDCS stimulation session information recorded was the date of each session completed, the time of day of each completed session, the duration of each completed session, the intensity of electrical stimulation in each session, the latency from the most recently completed session to the previous session.
Subjects completed a MADSR-s assessment at baseline prior to their first tDCS session. […] In this treatment tracking questionnaire, subjects recorded if their specific antidepressant agent or category of antidepressant had changed. […] Subjects also recorded if the dosage administered of the antidepressant medication had changed in the past month. […]

[2] = system: serotonin reuptake and norepinephrine reuptake; conditions: cited from earlier work

SMILES | Result of ANOVA of change in MADRS-s score ([1]; Week 6 after initiation of treatment, Fluoxetine vs. the labelled agent, each combined with tDCS, irrespective of tDCS adherence) | effectiveness in reducing symptoms of depression (change in MADRS-s) compared to fluoxetine [1] | selectivity for serotonin reuptake inhibition than norepinephrine reuptake inhibition [2]
COc1ccc(C(CN(C)C)C2(O)CCCCC2)cc1 (centres unmarked) [Venlafaxine, venlafaxine] | Approaching | approaching significance | –
CN[C@H]1CC[C@@H](c2ccc(Cl)c(Cl)c2)c2ccccc21 [Sertraline, sertraline] | – | significant difference; also recorded: significantly better | –
CN(C)CC(c1ccc(O)cc1)C1(O)CCCCC1 (centres unmarked) [desvenlafaxine] | – | – | 10 fold
CNCC[C@H](Oc1cccc2ccccc12)c1cccs1 [duloxetine] | – | – | 10 fold
